Experimental findings from ChEMBL document CHEMBL1149054, “Isolation and structure of harzianum A: a new trichothecene from Trichoderma harzianum” (J Nat Prod, 1994) are described below.

Each structure is given as a SMILES string. The source made the active and inactive calls. The calls are words filed in the database; no cut-off is given here.

Series [1] deals with Micrococcus luteus. Description: Antimicrobial activity against Micrococcus luteus at 1 mg/ml. The format is functional, organism-based.
A short description of series [2]: Cytotoxicity against BHK cells upto 1 ug/ml. The following applies: hamster. In kind it is cell-based, Mesocricetus auratus.
Series [3] has as its system Escherichia coli. Put plainly: Antimicrobial activity against Escherichia coli at 1 mg/ml. The format is functional, organism-based.
Series [4] relates to Staphylococcus aureus. Put plainly: Antimicrobial activity against Staphylococcus aureus at 1 mg/ml. The format is functional, organism-based.

Turning to `CC1=C[C@H]2O[C@@H]3C[C@@H](OC(=O)\C=C/C=C/C=C/C(=O)O)[C@](C)([C@@]2(C)CC1)[C@]31CO1` [HARZIANUM A], the result in series [1], in series [3] and in series [4] was inactive. Moreover, in series [2], the Activity entry was “Non-toxic”.
